We go through 46 compounds from PubChem BioAssay AID1645871.

The conditions of this data set: pampa; pH 5.0; 30.0 min; 50.0 µM.
By Papp is commonly meant the rate of passage across a membrane or cell layer, normalised by area and donor concentration. Low values mean poor permeation, high ones ready permeation. Turning to `CC(=O)NCCNC[C@@H]1C=C(C)[C@H](Cc2nnc(-c3ccccc3)o2)C[C@H]1C(C)C`, the Papp was determined as 25.8 ×10⁻⁶ cm/s.

On to `COc1ccc(-n2nc(C3CCCN(C(=O)c4ccc(C)cc4)C3)[nH]c2=O)cc1` (stereo unspecified), for which the Papp amounted to 603 ×10⁻⁶ cm/s.

On to `CN1CCN(Cc2ccc(NC(=O)Cc3ccc(Oc4cc(NC(=O)C5CC5)ncn4)cc3)cc2C(F)(F)F)CC1`, for which the Papp came to 19.3 ×10⁻⁶ cm/s.

The compound `Cc1ccc(S(=O)(=O)N2CCN(C(=O)c3cc4c(s3)CCC4)CC2)cc1` registered a Papp of over 1000 ×10⁻⁶ cm/s.

`Cc1c(Cl)cccc1NC(=O)CNS(=O)(=O)c1cccs1` came in with an apparent permeability (Papp) of 458 ×10⁻⁶ cm/s.

Consider `COc1ccc(-c2cc(-c3ccccc3)nc(SCC(=O)Nc3ccccc3C)c2C#N)cc1`, for which the Papp came to 587 ×10⁻⁶ cm/s.

`CC(=O)Nc1ccc(C(=O)Nc2ccc3c(c2)N(C2CCCC2)C(=O)c2ccccc2S3)cc1` had a Papp of 511 ×10⁻⁶ cm/s.

In turn, `CN1C(=O)C(=O)N2C(=C[C@]3(c4c[nH]c5ccccc45)c4ccccc4N[C@H]23)C1=O` returned a Papp of 986 ×10⁻⁶ cm/s. Compared with the last compound, the Papp is about 1.9-fold higher.

The compound `O=C(NC[C@H]1Cn2c(-c3ccc(Cl)cc3)cnc2CO1)C1CCCC1` displayed a Papp of 19.4 ×10⁻⁶ cm/s.

Take `COc1ccc(-c2cc(C)nc3c(-c4ccc(OC)c(OC)c4)c(C)nn23)cc1`: the Papp is over 1000 ×10⁻⁶ cm/s.

For the compound `COc1ccc(-c2noc([C@@H]3Cc4nc[nH]c4CN3C(=O)NC3CCCCC3)n2)cc1`, the Papp was 58.2 ×10⁻⁶ cm/s.

In turn, `c1ccc(Nc2cc3c(cn2)CN(Cc2ccsc2)CCN3)cc1` registered a Papp of 15.3 ×10⁻⁶ cm/s.

Compound `O=C(NCCCN1CCCC1=O)c1ccc(-c2ncc3cnc(-c4ccccc4)cn23)cc1` yielded a Papp of 193 ×10⁻⁶ cm/s.

`Cn1cnc2c(F)c(Nc3ccc(Br)cc3Cl)c(C(=O)NOCCO)cc21` had a Papp of 151 ×10⁻⁶ cm/s.

As to `CC1=C[C@@H](CNCc2cccnc2)[C@H](C(C)C)C[C@H]1Cc1nnc(-c2ccc([N+](=O)[O-])cc2)o1`, the Papp was 984 ×10⁻⁶ cm/s.

For `CCOC(=O)c1ccc(NC(=O)CSc2nc3c(cc2C#N)N2CCC3CC2)cc1`, the apparent permeability coefficient (Papp) amounted to 236 ×10⁻⁶ cm/s.

On to `Oc1ccc(CN2CC(CNc3ccccc3)C3(C2)CN(c2ccccc2)C3)cc1` (stereo unspecified), for which the Papp is over 1000 ×10⁻⁶ cm/s.

Compound `COc1cc(Cl)c(C)cc1NS(=O)(=O)c1c(C)nc2sccn2c1=O` showed a Papp of 802 ×10⁻⁶ cm/s.

Take `CCc1ccccc1-n1c(SCC(=O)Nc2ccc(C)cc2)nc2n[nH]c(C)c2c1=N`: the Papp was over 1000 ×10⁻⁶ cm/s.

Compound `CN1CCN(CCCN2c3ccccc3Sc3ccc(S(=O)(=O)N(C)C)cc32)CC1` yielded a Papp of 730 ×10⁻⁶ cm/s.

For `COc1ccc(-c2[nH]nc3ncc(-c4ccc(CO)cc4)nc23)cc1F`, the Papp stood at 428 ×10⁻⁶ cm/s. Against the preceding compound, the Papp is about 1.7-fold lower.

On to `CN(C)CC/C=C1\c2ccccc2Sc2ccc(Cl)cc21`, for which the Papp worked out at 531 ×10⁻⁶ cm/s.

On to `Cc1cccc(N2CCN(c3nc4ccccc4c4nnc(C)n34)CC2)c1C`, for which the Papp is over 1000 ×10⁻⁶ cm/s.

The compound `CN1CCCC(CC2c3ccccc3Sc3ccccc32)C1` (stereo unspecified) displayed a Papp of over 1000 ×10⁻⁶ cm/s.

The compound `COc1ccc(C(=O)N2CCCC(c3nn(-c4ccc(OC)cc4)c(=O)[nH]3)C2)cc1` (stereo unspecified) came in with a Papp of 255 ×10⁻⁶ cm/s.

Compound `O=C(Nc1ccccc1-c1cn2c(CN3CCNCC3)csc2n1)c1cnc2ccccc2n1` returned a Papp of 342 ×10⁻⁶ cm/s.

Take `O=c1[nH]c(N2CCOCC2)nc2c1CCN(Cc1ccc(Cl)cc1F)CC2`: the Papp was 71.2 ×10⁻⁶ cm/s.

As to `Cc1nn2c(c1-c1ccccc1-c1ccccc1)N(Cc1ccc(O)cc1)CCC2`, the Papp came to 118 ×10⁻⁶ cm/s.

With `COc1ccc(-n2nc(C3CCCN(CC4CCCCC4)C3)[nH]c2=O)cc1` (stereo unspecified), the Papp stood at 322 ×10⁻⁶ cm/s.

Compound `Oc1ccccc1CN1CCNc2cc(Nc3ccccc3)ncc2C1` gave a Papp of 23.1 ×10⁻⁶ cm/s.

`Cc1ccc(NC(=O)C(Cc2ccccc2)NS(=O)(=O)c2cccs2)cc1Cl` (stereo unspecified) displayed a Papp of 570 ×10⁻⁶ cm/s.

For `Cc1nc([C@](C)(O)CO)sc1-c1cnc(N)c(O[C@H](C)c2cc(F)ccc2-n2nccn2)c1`, the Papp is 322 ×10⁻⁶ cm/s.

`Cc1ccccc1-c1nc(NCc2ccc(-c3cccnc3)cc2)c2ccccc2n1` came in with a Papp of over 1000 ×10⁻⁶ cm/s.

For the compound `O=C(Nc1ccc(F)cc1F)c1cc(-c2ccc[nH]2)n[nH]1`, the Papp came out at 166 ×10⁻⁶ cm/s.

`CCCCc1ccc(NC(=O)c2ccc3c(c2)N(S(C)(=O)=O)CC3)cc1` came in with a Papp of 385 ×10⁻⁶ cm/s.

Consider `COCCNc1ncc(-c2cccc(O)c2)c2c1OCC2`, for which the Papp is 77 ×10⁻⁶ cm/s.

`O=C(O)c1cnc(-c2ccc(F)cc2)nc1-c1ccncc1` displayed a Papp of 38.3 ×10⁻⁶ cm/s.

Compound `CCOc1ccccc1C(=O)Nc1ccncc1C(=O)Nc1cccc(S(=O)(=O)C(F)(F)F)c1` yielded a Papp of 139 ×10⁻⁶ cm/s.

The compound `COc1ccc(-n2nc(C3CCCN(C(=O)Cc4ccccn4)C3)[nH]c2=O)cc1` (stereo unspecified) displayed a Papp of 71.4 ×10⁻⁶ cm/s. Compared with the last compound, the Papp is about 1.9-fold lower.

For `COc1cc(C2CC(=O)Nc3cc4c(cc32)OCCO4)cc(Br)c1OC` (stereo unspecified), the Papp is over 1000 ×10⁻⁶ cm/s.

Compound `CCOc1ccc(C2C(C(=O)Nc3ccccc3OC)=C(C)Nc3c(C(=O)Nc4cccc(C)c4)cnn32)cc1` (stereo unspecified) gave a Papp of 170 ×10⁻⁶ cm/s.

The compound `C[C@@H](O)CNC(C)(C)CC(=O)N[C@@H]1CCc2ccccc2N(Cc2ccc(-c3ccccc3-c3nn[nH]n3)cc2)C1=O` displayed a Papp of 5.85 ×10⁻⁶ cm/s.

In the case of `FC(F)(F)c1ccc(CN2CCNc3cc(Nc4ccccc4)ncc3C2)cc1`, the apparent permeability (Papp) worked out at 21.1 ×10⁻⁶ cm/s.

Compound `CN(C(=O)CSc1nc2ccc(NC(=O)c3ccc(F)cc3)cc2s1)c1ccccc1` returned a Papp of 901 ×10⁻⁶ cm/s.

Compound `COc1ccc(C)cc1NC(=O)c1cnc(-c2ccc(F)cc2)nc1-c1ccncc1` came in with a Papp of 926 ×10⁻⁶ cm/s.

Consider `Nc1nc2c(s1)C(c1ccc(F)cc1F)CC(=O)N2` (stereo unspecified), for which the Papp was 5 ×10⁻⁶ cm/s.
